Reference: PubChem BioAssay (NCI)
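Dose response: 5 concentrations. Exposure: 48 h. Format: 96-well plates. Endpoint: linear interpolation; highest concentration if not reached. At the TGI there is no net growth.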

Experiments:
Test in all cases: NCI anticancer screen, dose series, 48 h
[1] = system: RPMI-8226 leukemia
[2] = system: OVCAR-8 ovarian
[3] = system: NCI-H226 lung
[4] = system: HCC-2998 colon
[5] = system: UACC-62 melanoma
[6] = system: OVCAR-4 ovarian
[7] = system: SK-MEL-5 melanoma
[8] = system: OVCAR-5 ovarian
[9] = system: UO-31 renal
[10] = system: SNB-19 CNS
[11] = system: PC-3 prostate
[12] = system: LXFL 529 NSCLC
[13] = system: HOP-62 NSCLC
[14] = system: U251 CNS
[15] = system: MOLT-4 leukemia
[16] = system: SF-295 CNS
[17] = system: M14 melanoma
[18] = system: SR leukemia
[19] = system: MCF7 breast
[20] = system: NCI-H460 lung
[21] = system: MDA-MB-435
[22] = system: KM20L2 colon
[23] = system: SF-539 CNS
[24] = system: K-562 leukemia
[25] = system: HCT-116 colon
[26] = system: COLO 205 colon
[27] = system: BT-549 breast
[28] = system: HT29 colon
[29] = system: SW-620 colon
[30] = system: NCI-H23 lung
[31] = system: MDA-N
[32] = system: SNB-75 CNS
[33] = system: A498 renal
[34] = system: T-47D breast
[35] = system: NCI/ADR-RES ovarian
[36] = system: LOX IMVI melanoma
[37] = system: RXF 393 renal
[38] = system: HL-60(TB) leukemia
[39] = system: DLD-1 colon
[40] = system: KM12 colon
[41] = system: NCI-H522 lung
[42] = system: 786-0 renal
[43] = system: CAKI-1 renal
[44] = system: MALME-3M melanoma
[45] = system: DMS 114 small cell lung
[46] = system: HOP-92 NSCLC
[47] = system: IGROV1 ovarian
[48] = system: SN12C renal
[49] = system: UACC-257 melanoma
[50] = system: MDA-MB-231 breast
[51] = system: SF-268 CNS
[52] = system: CCRF-CEM leukemia
[53] = system: XF 498 CNS
[54] = system: TK-10 renal
[55] = system: EKVX NSCLC
[56] = system: SK-MEL-28 melanoma
[57] = system: A549 NSCLC
[58] = system: SK-MEL-2 melanoma
[59] = system: HCT-15 colon
[60] = system: ACHN renal
[61] = system: DU-145 prostate
[62] = system: OVCAR-3 ovarian
[63] = system: SK-OV-3 ovarian
[64] = system: HS 578T breast

**Q.** Which results are given for `CC1=NN(C(=O)c2ccccc2O)C(=O)/C1=C/c1ccccc1O`?
**A.** TGI [1]: > 100 µM; TGI [2]: 64.4 µM; TGI [3]: 16.4 µM; TGI [4]: 55.6 µM; TGI [5]: 7.2 µM; TGI [6]: 68.3 µM; TGI [7]: 14.2 µM; TGI [8]: > 93.8 µM; TGI [9]: 1.56 µM; TGI [10]: > 100 µM; TGI [11]: > 100 µM; TGI [12]: > 100 µM; TGI [13]: 39.4 µM; TGI [14]: > 100 µM; TGI [15]: 51 µM; TGI [16]: > 100 µM; TGI [17]: 48.4 µM; TGI [18]: 65.4 µM; TGI [19]: > 64.2 µM; TGI [20]: > 100 µM; TGI [21]: > 100 µM; TGI [22]: > 100 µM; TGI [23]: 2.45 µM; TGI [24]: > 100 µM; TGI [25]: > 29.9 µM; TGI [26]: > 89.1 µM; TGI [27]: 50 µM; TGI [28]: > 100 µM; TGI [29]: > 100 µM; TGI [30]: 20.9 µM; TGI [31]: > 100 µM; TGI [32]: > 67.7 µM; TGI [33]: 0.124 µM; TGI [34]: 15.6 µM; TGI [35]: > 36.7 µM; TGI [36]: 31.9 µM; TGI [37]: 0.924 µM; TGI [38]: 3.62 µM; TGI [39]: > 100 µM; TGI [40]: > 100 µM; TGI [41]: 17.9 µM; TGI [42]: 44.4 µM; TGI [43]: > 27.3 µM; TGI [44]: 74.4 µM; TGI [45]: 8.86 µM; TGI [46]: 28.5 µM; TGI [47]: 3.63 µM; TGI [48]: 33.7 µM; TGI [49]: 30.5 µM; TGI [50]: > 100 µM; TGI [51]: > 75.4 µM; TGI [52]: > 100 µM; TGI [53]: > 100 µM; TGI [54]: > 100 µM; TGI [55]: 41.6 µM; TGI [56]: > 100 µM; TGI [57]: > 100 µM; TGI [58]: > 91.4 µM; TGI [59]: 21.2 µM; TGI [60]: 33.1 µM

**Q.** How did the TGI [1] turn out when `Cc1ccc(C(=O)C(Cl)C(Cl)c2ccc(C)cc2)cc1` (centres undefined) was run?
**A.** 7.25 µM

**Q.** What about the TGI [2] of the same compound?
**A.** 7.7 µM

**Q.** What about the TGI [3] of the same compound?
**A.** 11.4 µM

**Q.** What about the TGI [4] of the same compound?
**A.** 3.92 µM

**Q.** What about the TGI [5] of the same compound?
**A.** 10.9 µM

**Q.** What about the TGI [6] of the same compound?
**A.** 5.04 µM

**Q.** And the TGI [7]?
**A.** 6.68 µM

**Q.** And the TGI [8]?
**A.** 33 µM

**Q.** And the TGI [9]?
**A.** 3.73 µM

**Q.** What about the TGI [10] of the same compound?
**A.** 23.3 µM

**Q.** What about the TGI [11] of the same compound?
**A.** 18.4 µM

**Q.** And the TGI [13]?
**A.** 45.4 µM

**Q.** And the TGI [14]?
**A.** 12.4 µM

**Q.** What about the TGI [15] of the same compound?
**A.** 6.67 µM

**Q.** And the TGI [16]?
**A.** 23.7 µM

**Q.** What about the TGI [17] of the same compound?
**A.** 35.5 µM

**Q.** What about the TGI [18] of the same compound?
**A.** 6.68 µM

**Q.** And the TGI [19]?
**A.** 18.6 µM

**Q.** And the TGI [20]?
**A.** 22.3 µM

**Q.** And the TGI [61]?
**A.** 15.3 µM

**Q.** What about the TGI [21] of the same compound?
**A.** 10.8 µM

**Q.** What about the TGI [23] of the same compound?
**A.** 6.38 µM

**Q.** And the TGI [24]?
**A.** 7.15 µM

**Q.** What about the TGI [25] of the same compound?
**A.** 4 µM

**Q.** What about the TGI [26] of the same compound?
**A.** 4.1 µM

**Q.** And the TGI [27]?
**A.** 9.2 µM

**Q.** What about the TGI [28] of the same compound?
**A.** 4.31 µM

**Q.** And the TGI [29]?
**A.** 6.32 µM

**Q.** What about the TGI [30] of the same compound?
**A.** 23.9 µM

**Q.** And the TGI [31]?
**A.** 6.18 µM

**Q.** What about the TGI [32] of the same compound?
**A.** 23 µM

**Q.** And the TGI [33]?
**A.** 30 µM

**Q.** And the TGI [34]?
**A.** 4.86 µM

**Q.** What about the TGI [35] of the same compound?
**A.** 6.15 µM

**Q.** What about the TGI [36] of the same compound?
**A.** 3.78 µM

**Q.** What about the TGI [62] of the same compound?
**A.** 11.2 µM

**Q.** And the TGI [37]?
**A.** 23.4 µM

**Q.** And the TGI [38]?
**A.** 10 µM

**Q.** And the TGI [40]?
**A.** 13.9 µM

**Q.** What about the TGI [41] of the same compound?
**A.** 10.7 µM

**Q.** And the TGI [42]?
**A.** 4.61 µM

**Q.** And the TGI [43]?
**A.** 5.53 µM

**Q.** And the TGI [44]?
**A.** 32.1 µM

**Q.** And the TGI [46]?
**A.** 5.24 µM

**Q.** What about the TGI [47] of the same compound?
**A.** 6.34 µM

**Q.** And the TGI [63]?
**A.** 30.7 µM

**Q.** What about the TGI [48] of the same compound?
**A.** 3.88 µM

**Q.** And the TGI [49]?
**A.** 4.48 µM

**Q.** And the TGI [50]?
**A.** 16.1 µM

**Q.** And the TGI [51]?
**A.** 21.2 µM

**Q.** And the TGI [52]?
**A.** 4.28 µM

**Q.** What about the TGI [54] of the same compound?
**A.** 8.13 µM

**Q.** And the TGI [55]?
**A.** 19.5 µM

**Q.** And the TGI [56]?
**A.** 8.68 µM

**Q.** And the TGI [57]?
**A.** > 91.8 µM

**Q.** What about the TGI [64] of the same compound?
**A.** 76.3 µM

**Q.** What about the TGI [58] of the same compound?
**A.** 36.2 µM

**Q.** What about the TGI [59] of the same compound?
**A.** 3.73 µM

**Q.** And the TGI [60]?
**A.** 3.13 µM
